Data as given in paper PMC7463913, “The Interaction of Fluorinated Glycomimetics with DC-SIGN: Multiple Binding Modes Disentangled by the Combination of NMR Methods and MD Simulations” (Pharmaceuticals, 2020).

How the values were obtained:
[1] = target: T1, DC-SIGN (ECD) (Homo sapiens, UniProt Q9NNX6); assay: competitive 19F-R2 filtered NMR experiments (spy molecule 6-F-ManαOMe); assay type: binding; conditions: for Ki: non-linear least squares fitting, [6-F-ManαOMe] 400 µM, [DC-SIGN (CRDs)] 10 µM, 298 K, pH 8.0
T1 construct: DC-SIGN full extracellular domain (ECD, residues 70-404, Thermo Fischer Scientific); made in house
T1 sequence (Q9NNX6 70-404): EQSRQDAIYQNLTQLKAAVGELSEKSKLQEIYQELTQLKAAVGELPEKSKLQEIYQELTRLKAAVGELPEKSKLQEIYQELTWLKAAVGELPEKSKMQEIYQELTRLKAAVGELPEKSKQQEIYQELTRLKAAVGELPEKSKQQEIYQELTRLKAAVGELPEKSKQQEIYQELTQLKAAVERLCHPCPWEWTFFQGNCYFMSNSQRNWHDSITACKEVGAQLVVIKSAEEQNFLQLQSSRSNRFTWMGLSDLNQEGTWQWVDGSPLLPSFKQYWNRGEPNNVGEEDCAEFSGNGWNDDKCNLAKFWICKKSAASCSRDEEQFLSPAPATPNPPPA
Excerpt: In order to gain insights into the effects that the different fluorination patterns may have in the binding event, the affinities of 1b, the natural analogue of 1, as well as 1c and 1d, two partially fluorinated trisaccharides, were also estimated. (Table 2, Figure S1).
(§1) For KD estimation of 6-deoxy-6-F-Man (the spy-molecule), the free evolution delay was set to an optimized value τ=1 ms , after using relaxation dispersion experiments to assure a negligible chemical exchange contribution to R2,obs (Figure S1a). The KI of 1, 1b-d, 2, and 3 with DC-SIGN (ECD) was determined by titration experiments in a competitive fashion. Increasing amounts of the competitor molecules (compounds 1, 1b-d, 2, and 3) were added to a solution mixture of the spy molecule and the protein in each case, calculating the R2,obs of the spy molecule at each competitor concentration while the ratio [Spy-molecule]/[Protein] is fixed (40:1) (Figure S1c).
(§2) 19F-R2 filtered experiments
The KD of compounds 1, 1b-d, 2 and 3 was estimated applying a 19F-R2 filtered approach. 6-F-ManαOMe, which weakly binds to DC-SIGN, was selected as the spy molecule. Relaxation rates R2 were determined employing a CPMG pulse sequence, by fitting the observed 19F signal intensity to the exponential decay curve:
ܫ(ݐ) = ܫ଴݁ି௧ோమ = ܫ଴݁ି௡ଶఛோమ (1) where ܫ(ݐ) refers to intensity at time ݐ, ܫ଴ is intensity at ݐ = 0, and ܴଶ is the transversal relaxation rate (ܴଶ = 1/ܶଶ).
In the limit of fast-exchange where the exchange contribution to the observed transversal relaxation rate ܴଶ,௢௕௦ is insignificant (Figure S1, a)), the following equations apply:
ܴଶ,௢௕௦ = ܴଶ,௙ + ൫ܴଶ,௕ − ܴଶ,௙൯݌௕ (2)
(§3) [ܲ]் + [ܮ]் + ܭ஽ − ඥ([ܲ]் + [ܮ]் + ܭ஽)ଶ − 4[ܲ]்[ܮ]் (3) where [ܲ]் and [ܮ]் are the total protein and ligand concentrarion respectively, [ܴ]ଶ,௙ and [ܴ]ଶ,௕ are the relaxation rates in the free and bound states, ݌௕ is the fraction of bound ligand and ܭ஽ the dissociation constant of the protein-ligand complex. [ܴ]ଶ,௙ of 6-F-ManαOMe was measured in absence of the lectin, and Equation 2 was used to estimate ܭ஽and [ܴ]ଶ,௕ for the […]
Then, ܭூ of compounds 1, 1b-d, 2 and 3 was measured in a competitive manner. ܴଶ,௢௕௦ of 6-F-ManαOMe (spy molecule) in solution with DC-SIGN ECD was monitored at 5 different competitor concentrations ([ܫ]) in each case with a fixed [ܲ]்/[ܮ]் ratio (Figure S1, c)), to derive ܭூ by fitting to Equation 2 with ݌௕ as defined in Equations (4) and (5) (Table 2):
݌௕ = 3ܭ + 2 cos൫ߠൗ ൯ √ܽଶ − 3ܾ − ܽ (4)
ߠ = cos ൬ ଶඥ(௔మିଷ௕)య ൰, ܽ = ܭ஽ + ܭூ + [ܮ]் + [ܫ]் − [ܲ]், ܾ = ([ܫ]் − [ܲ]்)ܭ஽ + ([ܮ]் − [ܲ]்)ܭ஽ + ܭூܭ஽, ܿ = −ܭூܭ஽[ܲ]்
Figure S1. 19F-R2 filtered experiments. a) Relaxation dispersion experiment for 6-F-ManαOMe (the spy molecule). R2,obs of the 19F nucleus is measured for different values of ωCPMG. Ligand and protein sample concentrations were: [6-F-ManαOMe] = 400 µM, [DC-SIGN (CRDs)] = 10 µM (counting concentration of CRDs, i.e, 4 CRDs per DC-SIGN ECD tetramer). For ωCPMG > 1000 s-1, there is virtually negligible exchange contribution to R2. Therefore, all the subsequent R2 filtered experiments were carried out with τCPMG = 1/ωCPMG = 1 ms. b) KD determination of 6-F-ManαOMe with DC-SIGN. R2,obs was measured for increasing amounts of [6-F-ManαOMe]/[DC-SIGN (CRDs)] (blue dots). KD and R2,b were obtained from fitting to Equation 2, which is valid in the fast-exchange regime (Rex = 0) [39a]. The predicted values at each [6-F-ManαOMe]/[DC-SIGN (CRDs)] are shown as red stars for comparison c) Titration curves showing the variation in 19F-R2,obs of the spy molecule 6-F-ManαOMe, when increasing amounts of the competitors (I) 1, 1b-d, 2 and 3 are added to a mixture [6-F-ManαOMe] = 400 µM, [DC-SIGN (CRDs)] = 10 µM. […]

[2] = target: T2, DC-SIGN (ECD tetramer) (Homo sapiens, UniProt Q9NNX6); assay: 2D-STD-TOCSYreF NMR experiments (binding epitope); conditions: for total relative STD per Man ring: normalized to the global observed STD; for % STD (normalized): normalized to largest STD in each molecule
T2 construct: DC-SIGN full extracellular domain (ECD, residues 70-404, Thermo Fischer Scientific); made in house
T2 sequence (Q9NNX6 70-404): T1 sequence (Q9NNX6 70-404)
Excerpt: The interaction between DC-SIGN and the three Man-based 2-deoxy-fluoro oligosaccharides (Figure 1) was first analyzed using 2D-STD-TOCSYreF experiments (Figure 2). A long TOCSY mixing time (128 ms) was used to extend the polarization to all protons within the same spin system for each Man ring. The enhanced resolution of the 2D-TOCSYreF allowed the assignment of most of the STD NMR cross peaks with high reliability for the three fluorinated compounds (Figure 2 and Table 1). Generally speaking, the inherent loss of sensitivity due to the heteronuclear reF transfer in the 2D-STD-TOCSYreF experiments is overcompensated by the gained spectral dispersion.
Figure 2 2D-TOCSYreF off-resonance spectrum (red) and 2D-STD-TOCSYreF peaks (blue) obtained for 1 (top panel), 2 (central panel) and 3 (bottom panel) in the presence of DC-SIGN. The ^19F NMR frequencies are given in the abscissa axis and the ^1H NMR frequencies in the ordinate axis. The STD cross peaks are shifted to high field in the ^19F frequency to facilitate visual inspection. Every blue cross peak corresponds to the STD NMR intensity of the particular ^1H NMR nucleus in a given monosaccharide, which is encoded by the ^19F frequency. The ligand concentration was 1.4 mM in each case, with 9.14 μM of DC-SIGN tetramer, thus containing four carbohydrate recognition domains (CRD) (ligand/protein-CRD ratio is 38:1). The on-resonance irradiation was set to 0.85 ppm, with a saturation time of 2 s. The relative STD values, shown by colored circles, are obtained from the ratio between the corresponding peaks in the 2D STD-TOCSY-reF and 2D-TOCSYreF off-resonance spectra, and normalized to the largest STD in each molecule. The circles connected by a colored thin line correspond to overlapped signals in the spectrum, so that the STD intensity is shown as ‘spread’ between the corresponding ^1H nuclei (meaning each of these protons may contribute or not to the total STD observed). In this case, the added STD intensity is given. The total relative STD per Man ring for each molecule is also specified with a colored tag, using the same color code as the circles. TEXT PRINTED IN THE PICTURE: 1: % STD (Man II): 44 %; % STD (Man III): 9 %; % STD (Man I): 47 % | 2: % STD (Man III): 11 %; % STD (Man I): 89 % | 3: % STD (Man II): 70 %; % STD (Man III): 30 % DOUBTS OF THE COPYIST ABOUT THIS PICTURE: The percent tags are matched to the Man I/II/III rings by position and colour only. The measure '% STD' is printed only at the colour bar. / The percent tags are relative STD-NMR values per sugar ring (binding epitope), so it is uncertain whether they count as a result or belong to the excluded spectra.
Samples for the 2D STD-TOCSY-reF contained 9.14 µM ECD (tetramer) and 153 eq. of ligand (1.4 mM, the ratio ligand/protein (CRD) is 38:1) in each case. The 2D STD-TOCSY-reF setup consists on a proton saturation transfer scheme (^1Hprotein→^1Hligand-STD) with subsequent evolution through JHH couplings (TOCSY), to finally refocus the STD-edited information in the ^19F dimension (reF). As STD parameters, selective saturation was applied for 2 s using 90º PC9 pulses of 10 ms length, with on-resonance saturation set at 0.85 ppm and off-resonance at 60 ppm. The TOCSY mixing time used was 128 ms, and the corresponding JHF evolution and refocusing delays in the reF module were Δ^H = 10.4 ms and Δ^F = 6 ms, respectively. The relative saturation values (%) were calculated from the ratio between peaks in the 2D STD-TOCSY-reF spectrum and the corresponding ones in the off-resonance TOCSY-reF spectrum.

[3] = target: T1, DC-SIGN (ECD); assay: 19F-R2 filtered NMR KD determination of the spy molecule; assay type: binding; conditions: spy molecule with DC-SIGN; fast-exchange regime, τCPMG 1 ms
Procedure: as §1, §2
The KD of compounds 1, 1b-d, 2 and 3 was estimated applying a 19F-R2 filtered approach. […] Relaxation rates R2 were determined employing a CPMG pulse sequence, by fitting the observed 19F signal intensity to the exponential decay curve: […]
as §3

## CO[C@H]1O[C@H](CO[C@H]2O[C@H](CO)[C@@H](O)[C@H](O)[C@@H]2O)[C@@H](O)[C@H](O[C@H]2O[C@H](CO)[C@@H](O)[C@H](O)[C@@H]2O)[C@@H]1F [1c]
[1]
  Ki: 1000 µM

## CO[C@H]1O[C@H](CO[C@H]2O[C@H](CO)[C@@H](O)[C@H](O)[C@@H]2O)[C@@H](O)[C@H](O[C@H]2O[C@H](CO)[C@@H](O)[C@H](O)[C@@H]2O)[C@@H]1O [1b, reference compound]
[1]
  Ki: 1100 µM

## CO[C@H]1O[C@H](CO)[C@@H](O)[C@H](O[C@H]2O[C@H](CO)[C@@H](O)[C@H](O)[C@@H]2F)[C@@H]1F [compound 2]
[1]; fluorinated disaccharides versus 1
  loss in affinity versus the trisaccharide 1: ca. four-fold
[1]; fold loss of affinity from KI values
  weaker ligand relative to best binders (1b, 1c, 1d): nine-
[1]
  Ki: 9600 µM
[2]; Man I ring
  total relative STD per Man ring: 89%
[2]; Man III ring
  total relative STD per Man ring: 11%
[2]; proton ManI-1, ligand 1.4 mM, 9.14 µM tetramer, 2 s saturation at 0.85 ppm
  % STD (normalized): 15%
[2]; proton ManI-2
  % STD (normalized): 33%
[2]; proton ManI-3
  % STD (normalized): 74%
[2]; proton ManI-4
  % STD (normalized): 100%
[2]; proton ManI-5
  % STD (normalized): 22%
[2]; proton ManIII-1
  % STD (normalized): 17%
[2]; proton ManIII-2
  % STD (normalized): 14%

## CO[C@H]1O[C@H](CF)[C@@H](O)[C@H](O)[C@@H]1O [6-F-ManαOMe]
[3]
  Kd: 1300 µM
